The target in test [1] is T1, NUAK family SNF1-like kinase 1 (Homo sapiens) (UniProt O60285).
T1 sequence (whole entry): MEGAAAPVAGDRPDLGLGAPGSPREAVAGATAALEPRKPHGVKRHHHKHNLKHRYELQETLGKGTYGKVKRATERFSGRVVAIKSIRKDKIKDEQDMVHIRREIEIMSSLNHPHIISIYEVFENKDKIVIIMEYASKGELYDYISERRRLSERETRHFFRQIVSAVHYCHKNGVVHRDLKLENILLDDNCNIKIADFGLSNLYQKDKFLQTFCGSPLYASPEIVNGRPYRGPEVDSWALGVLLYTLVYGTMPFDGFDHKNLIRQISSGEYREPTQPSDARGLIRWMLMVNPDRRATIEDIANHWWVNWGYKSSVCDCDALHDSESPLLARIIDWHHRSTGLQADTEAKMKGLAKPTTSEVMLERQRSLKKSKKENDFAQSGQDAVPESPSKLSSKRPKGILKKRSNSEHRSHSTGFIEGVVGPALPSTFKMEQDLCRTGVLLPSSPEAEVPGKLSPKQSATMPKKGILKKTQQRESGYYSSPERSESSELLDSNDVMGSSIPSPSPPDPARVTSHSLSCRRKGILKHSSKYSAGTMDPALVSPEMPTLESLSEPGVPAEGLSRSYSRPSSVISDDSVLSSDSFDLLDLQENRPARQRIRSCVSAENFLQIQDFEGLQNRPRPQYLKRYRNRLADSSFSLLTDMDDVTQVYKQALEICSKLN
Put plainly: Inhibition of human recombinant NuaK1 at 15 nM related to control ULK1.

Test [2] deals with T2, Protein kinase C epsilon type (Homo sapiens) (UniProt Q02156).
T2 sequence (whole entry): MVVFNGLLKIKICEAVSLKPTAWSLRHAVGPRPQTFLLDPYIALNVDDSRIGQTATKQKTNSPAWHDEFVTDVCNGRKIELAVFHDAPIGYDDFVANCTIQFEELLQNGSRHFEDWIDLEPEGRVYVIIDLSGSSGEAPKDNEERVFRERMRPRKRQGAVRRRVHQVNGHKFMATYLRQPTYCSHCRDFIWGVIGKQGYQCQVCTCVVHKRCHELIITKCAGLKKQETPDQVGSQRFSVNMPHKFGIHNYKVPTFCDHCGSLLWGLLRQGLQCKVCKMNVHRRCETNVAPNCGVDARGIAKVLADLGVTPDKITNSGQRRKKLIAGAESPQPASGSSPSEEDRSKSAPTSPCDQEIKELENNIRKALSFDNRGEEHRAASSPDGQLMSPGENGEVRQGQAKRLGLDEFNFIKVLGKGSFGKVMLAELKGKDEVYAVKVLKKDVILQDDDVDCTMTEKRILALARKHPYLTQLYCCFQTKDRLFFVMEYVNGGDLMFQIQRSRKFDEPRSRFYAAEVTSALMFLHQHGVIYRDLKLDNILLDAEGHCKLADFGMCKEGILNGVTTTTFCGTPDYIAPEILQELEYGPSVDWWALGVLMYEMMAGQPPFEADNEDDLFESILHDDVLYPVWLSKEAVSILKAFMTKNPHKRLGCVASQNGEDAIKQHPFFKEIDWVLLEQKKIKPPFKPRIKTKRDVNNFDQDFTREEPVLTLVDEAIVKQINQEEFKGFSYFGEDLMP
Put plainly: Inhibition of human recombinant PKCe at 40 nM related to control ULK1.

The target of test [3] is Death-associated protein kinase 3 (Homo sapiens) (UniProt O43293). Description: Inhibition of human recombinant DAPK3 at 40 nM in presence of ATP by radiometric assay relative to control.
Chain of Death-associated protein kinase 3 (Homo sapiens) (O43293 whole entry, looked up): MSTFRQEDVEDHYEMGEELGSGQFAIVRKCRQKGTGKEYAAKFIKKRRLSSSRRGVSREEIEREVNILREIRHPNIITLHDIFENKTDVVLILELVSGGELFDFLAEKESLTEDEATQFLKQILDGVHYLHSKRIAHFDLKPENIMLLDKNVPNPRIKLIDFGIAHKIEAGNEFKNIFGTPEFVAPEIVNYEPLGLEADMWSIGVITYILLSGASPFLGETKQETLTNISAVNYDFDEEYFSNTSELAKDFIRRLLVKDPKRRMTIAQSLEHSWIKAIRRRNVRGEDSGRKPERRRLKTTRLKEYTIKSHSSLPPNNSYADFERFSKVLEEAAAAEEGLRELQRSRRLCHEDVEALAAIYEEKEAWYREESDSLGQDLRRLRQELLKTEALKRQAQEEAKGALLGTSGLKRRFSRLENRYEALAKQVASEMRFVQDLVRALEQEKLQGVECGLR
For test [4], the target named is T3, Serine/threonine-protein kinase Sgk1 (Homo sapiens) (UniProt O00141).
T3 sequence (whole entry): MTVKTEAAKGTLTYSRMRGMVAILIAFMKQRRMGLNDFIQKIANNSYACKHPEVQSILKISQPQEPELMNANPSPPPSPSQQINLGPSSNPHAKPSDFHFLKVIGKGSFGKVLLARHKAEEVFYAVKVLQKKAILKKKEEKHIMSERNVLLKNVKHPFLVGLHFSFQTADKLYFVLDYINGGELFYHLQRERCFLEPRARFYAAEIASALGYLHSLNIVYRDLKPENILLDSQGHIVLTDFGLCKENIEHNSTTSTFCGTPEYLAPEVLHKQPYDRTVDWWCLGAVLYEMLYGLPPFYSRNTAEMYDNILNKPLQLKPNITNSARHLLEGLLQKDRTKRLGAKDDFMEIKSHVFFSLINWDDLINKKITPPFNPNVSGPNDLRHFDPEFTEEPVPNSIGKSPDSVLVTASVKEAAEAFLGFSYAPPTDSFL
Description: Inhibition of human recombinant SGK1 at 500 nM related to control ULK1.

Test [5] concerns the target Cyclin-dependent kinase-like 1 (Homo sapiens) (UniProt Q00532). Description: Inhibition of human recombinant CDKL1 at 500 nM in presence of ATP by radiometric assay relative to control.
Test [6] deals with Calcium/calmodulin-dependent protein kinase type 1 (Homo sapiens) (UniProt Q14012). Description: Inhibition of human recombinant CaMK1a at 500 nM related to control ULK1.
Chain of Calcium/calmodulin-dependent protein kinase type 1 (Homo sapiens) (Q14012 whole entry, looked up): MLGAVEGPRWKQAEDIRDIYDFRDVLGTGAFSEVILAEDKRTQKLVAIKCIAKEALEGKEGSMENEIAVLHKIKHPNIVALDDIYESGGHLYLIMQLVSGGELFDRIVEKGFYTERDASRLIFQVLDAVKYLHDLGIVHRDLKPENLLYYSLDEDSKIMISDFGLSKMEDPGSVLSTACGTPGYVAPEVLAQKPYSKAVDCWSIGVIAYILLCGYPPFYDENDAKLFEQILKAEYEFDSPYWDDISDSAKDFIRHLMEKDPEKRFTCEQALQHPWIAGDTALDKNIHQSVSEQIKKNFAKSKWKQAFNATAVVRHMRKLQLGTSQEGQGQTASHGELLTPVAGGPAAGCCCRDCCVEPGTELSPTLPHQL
In test [7] the target is T4, Mitogen-activated protein kinase kinase kinase kinase 2 (Homo sapiens) (UniProt Q12851).
T4 sequence (whole entry): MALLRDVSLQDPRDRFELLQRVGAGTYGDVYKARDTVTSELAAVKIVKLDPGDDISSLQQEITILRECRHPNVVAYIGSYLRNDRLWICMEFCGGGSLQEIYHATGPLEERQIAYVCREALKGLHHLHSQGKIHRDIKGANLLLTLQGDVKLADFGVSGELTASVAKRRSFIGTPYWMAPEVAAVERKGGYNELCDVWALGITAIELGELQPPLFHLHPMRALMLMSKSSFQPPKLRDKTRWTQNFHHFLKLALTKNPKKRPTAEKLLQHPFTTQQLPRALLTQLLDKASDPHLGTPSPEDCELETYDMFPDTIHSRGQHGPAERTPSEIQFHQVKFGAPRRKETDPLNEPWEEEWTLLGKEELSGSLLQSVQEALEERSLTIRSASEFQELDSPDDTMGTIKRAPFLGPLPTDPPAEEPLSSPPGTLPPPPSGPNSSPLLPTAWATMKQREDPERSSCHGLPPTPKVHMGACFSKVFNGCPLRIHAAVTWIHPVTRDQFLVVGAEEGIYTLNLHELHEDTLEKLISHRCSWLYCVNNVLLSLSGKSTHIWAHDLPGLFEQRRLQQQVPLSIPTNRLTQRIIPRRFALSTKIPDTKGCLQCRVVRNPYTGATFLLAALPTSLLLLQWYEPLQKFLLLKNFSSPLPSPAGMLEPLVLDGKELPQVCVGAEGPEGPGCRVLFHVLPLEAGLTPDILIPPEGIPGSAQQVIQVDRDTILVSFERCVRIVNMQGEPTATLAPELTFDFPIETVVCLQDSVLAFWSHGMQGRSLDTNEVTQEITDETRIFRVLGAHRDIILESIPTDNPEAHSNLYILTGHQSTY
Description: Inhibition of human recombinant GCK at 500 nM in presence of ATP by radiometric assay relative to control.

Chain of Cyclin-dependent kinase-like 1 (Homo sapiens) (Q00532 whole entry): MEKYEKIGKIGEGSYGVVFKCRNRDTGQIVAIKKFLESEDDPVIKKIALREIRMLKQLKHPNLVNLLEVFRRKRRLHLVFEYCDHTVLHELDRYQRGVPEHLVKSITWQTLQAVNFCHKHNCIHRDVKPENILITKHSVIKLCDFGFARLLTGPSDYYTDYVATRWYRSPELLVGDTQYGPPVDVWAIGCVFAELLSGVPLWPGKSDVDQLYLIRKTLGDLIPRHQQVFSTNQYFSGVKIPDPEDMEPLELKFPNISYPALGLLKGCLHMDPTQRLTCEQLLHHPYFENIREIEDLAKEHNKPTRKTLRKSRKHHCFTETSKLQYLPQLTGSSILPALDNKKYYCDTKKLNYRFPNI

For `CC(C)[C@H](NC(=O)c1cc(-c2cnn3cc(-c4ccc(OCCN5CCCCC5)cc4)cnc23)cs1)C(F)(F)F`, the fold change (FC) in test [1] is 0.31.
As to `O=C(N[C@@H](C1CC1)C(F)(F)F)c1cc(-c2cnn3cc(-c4ccc(F)cc4)cnc23)cs1`, in test [2], the fold change (FC) came out at 0. For the same compound, the inhibition in test [3] was determined as 8%.
As for `CNC(=O)c1ccccc1Oc1nc(Nc2cc(OC)c(OC)c(OC)c2)ncc1Br`, the results for the fold change (FC) in test [4] and in test [6] were 0.03 and 0, respectively. Besides, the values for the inhibition in test [5] and in test [7] were 0% and 33%, respectively.

The values are drawn from ChEMBL document CHEMBL5653631, “A Potent and Selective ULK1 Inhibitor Suppresses Autophagy and Sensitizes Cancer Cells to Nutrient Stress” (iScience, 2018).
